Results from patent publication US6602710B1, “Screening method for SREBP pathway-specific inhibitors” (Chugai Seiyaku Kabushiki Kaisha, priority 1998, dated 2003).

Assays:
CHO-K1 cells = assay: amphotericin B cytotoxicity assay (cholesterol synthesis activity) in CHO-K1 cells; assay type: cell-based, Chinese hamster; details: 0.1 μg/ml 25-hydroxycholesterol, 24 hours, FIG. 4
[1] = tested on: LDL receptor activity of 25RA cells; assay: 125I-LDL binding assay (LDL receptor activity) in 25RA cells; assay type: cell-based, Chinese hamster; details: simvastatin + (1 μM), sterols −, 24 hours
Description: (§1) In order to measure LDL receptor activity, the examples of the present invention use the ^125I-LDL binding assay. However, other suitable means may include incorporation of LDL labeled with a fluorescent lipid DiI into cells or ELISA-mediated measurement of the amount of LDL receptors expressed on the surface of cell membranes, and the screening system of the present invention is not specifically limited to those shown herein.
(§2) On day 0, cells were seeded on 6-well plates at a density of 3×10^4 cells/well, and incubated in F-F12. […] On day 4, the cells were incubated at 4° C. for 2 hours, and then washed twice with PBS. Then, incubation was continued at 4° C. in L-F12 (containing 10 mM Hepes-NaOH, pH 7.4) containing 10 μg/ml ^125I-LDL or 10 μg/ml ^125I-LDL and 400 μg/ml LDL. After 5 hours, the cells were washed with buffer B (150 mM NaCl, 50 mM Tris-HCl, 2 mg/ml BSA, pH 7.4), then buffer C (150 mM NaCl, 50 mM Tris-HCl, pH 7.4) each three times, and incubated with 1 ml of buffer D (50 mM NaCl, 10 mM Hepes-NaOH, 4 mg/ml dextran sulfate, pH 7.4) at 4° C. After one hour, buffer D was recovered and assayed for its radioactivity. The protein level in cells remaining in wells was measured by the BCA method to calculate ^125I-LDL binding per mg of […].

[2] = tested on: LDL receptor activity of CHO-K1 cells; assay: 125I-LDL binding assay (LDL receptor activity) in CHO-K1 cells; assay type: cell-based, Chinese hamster; details: simvastatin + (1 μM), sterols −, 24 hours
Description: as §1, §2

25RA cells = details: amphotericin B at various concentrations in PBS, 4 hours, FIG. 3
DM7 cells = assay: amphotericin B cytotoxicity assay in DM7 cells; assay type: cell-based, Chinese hamster; details: compared with 25RA, amphotericin B in PBS, 4 hours, FIG. 3

C[C@H](CCCC(C)(C)O)[C@H]1CC[C@H]2[C@@H]3CC=C4C[C@@H](O)CC[C@]4(C)[C@H]3CC[C@]12C [25-hydroxycholesterol]
cholesterol synthesis activity (amphotericin B cytotoxicity assay) (CHO-K1 cells): inhibited cholesterol synthesis activity

CCC(C)(C)C(=O)O[C@H]1C[C@@H](C)C=C2C=C[C@H](C)[C@H](CC[C@@H]3C[C@@H](O)CC(=O)O3)[C@H]21 [simvastatin]
Cell surface binding of [125I]LDL [1]: 20.9 ng/mg protein | Cell surface binding of [125I]LDL [2]: 30.1 ng/mg protein

C[C@@H]1[C@H](O)[C@@H](C)/C=C/C=C/C=C/C=C/C=C/C=C/C=C/[C@H](O[C@@H]2O[C@H](C)[C@@H](O)[C@H](N)[C@@H]2O)C[C@@H]2O[C@](O)(C[C@@H](O)C[C@@H](O)[C@H](O)CC[C@@H](O)C[C@@H](O)CC(=O)O[C@H]1C)C[C@H](O)[C@H]2C(=O)O [amphotericin B]
survival of cells treated with amphotericin B (25RA cells): decreased depending on the concentration | survival of cells treated with amphotericin B (DM7 cells): remarkable resistance
